Laboratory results: patent publication US20140249135A1, “PIM KINASE INHIBITORS AND METHODS OF THEIR USE” (NOVARTIS AG, priority 2007, published 2014)
“And” between values parts separate entries of the source, which are not always exact repeats. Equal values may be shown once.

Key:
[1] = tested on: PC3 cells; assay: Cell proliferation assay (CellTiter-Glo), PC3; type: cell-based; conditions: Homo sapiens, PC-3
Procedure: HEL 92.1.7 cells (ATTC No. TIB-180, an erythroleukemia line derived from malignant peripheral blood), MV4-11 cells (ATCC No. CRL-9591, a human acute monocytic leukemia line) and PC3 cells (ATCC No. CRL-1435, a human prostatic adenocarcinoma line) were cultured in RPMI1640 supplemented with 10% FBS, sodium pyruvate and antibiotics. Cells were plated in the same medium at a density of 1000 cells per well into 96 well tissue culture plates, with outside wells vacant, on the day of assay.
Test compounds supplied in DMSO were diluted into DMSO at 500 times the desired final concentrations before dilution into culture media to 2 times final concentrations. Equal volumes of 2× compounds were added to the cells in 96 well plates and incubated at 37° C. for 3 days.
After 3 days plates were equilibrated to room temperature and equal volume of CellTiter-Glow Reagent (Promega) was added to the culture wells. The plates were agitated briefly and luminescent signal was measured with luminometer. The percent inhibition of the signal seen in cells treated with DMSO alone vs. cells treated with control compound was calculated and used to determine EC50 values (i.e., the concentration of a test compound that is required to obtain 50% of the maximum effect in the cells) for tested compounds, as shown in Example 763.

[2] = target: Pim3 kinase (Homo sapiens, UniProt Q86V86); assay: Pim3 ATP depletion assay; type: biochemical; conditions: read-out: IC50 (μM) PIM3
[3] = target: Pim1 kinase (Homo sapiens, UniProt P11309); assay: Pim1 ATP depletion assay; type: biochemical; conditions: Pim1 ATP depletion assay; read-out: IC50 (μM) PIM1;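 note: Luciferase-luciferin luminescence readout of residual ATP after PIM1 transfers phosphate to a peptide substrate, 40 µM ATP added, reaction run to roughly half ATP consumption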
[4] = target: Pim2 kinase (Homo sapiens, UniProt Q9P1W9); assay: Pim2 ATP depletion assay; type: biochemical; conditions: read-out: IC50 (μM) PIM2;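 note: Luciferase-based luminescent readout of ATP remaining after PIM2 phosphorylates a BAD peptide, final 5 nM enzyme, 4 µM ATP, 10 µM peptide, 2.5% DMSO, run to roughly half ATP consumption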
[5] = target: T1, human full length PKCE enzyme (Homo sapiens, UniProt Q02156); assay: In vitro PKCE assay; type: biochemical; conditions: 10 nM enzyme, 40 uM peptide substrate, 20 uM ATP, KinaseGlo Plus readout; read-out: PKCε IC50
T1 construct: human full length PKCE enzyme purchased from InVitrogen; purchased InVitrogen
T1 sequence (Q02156 1-737): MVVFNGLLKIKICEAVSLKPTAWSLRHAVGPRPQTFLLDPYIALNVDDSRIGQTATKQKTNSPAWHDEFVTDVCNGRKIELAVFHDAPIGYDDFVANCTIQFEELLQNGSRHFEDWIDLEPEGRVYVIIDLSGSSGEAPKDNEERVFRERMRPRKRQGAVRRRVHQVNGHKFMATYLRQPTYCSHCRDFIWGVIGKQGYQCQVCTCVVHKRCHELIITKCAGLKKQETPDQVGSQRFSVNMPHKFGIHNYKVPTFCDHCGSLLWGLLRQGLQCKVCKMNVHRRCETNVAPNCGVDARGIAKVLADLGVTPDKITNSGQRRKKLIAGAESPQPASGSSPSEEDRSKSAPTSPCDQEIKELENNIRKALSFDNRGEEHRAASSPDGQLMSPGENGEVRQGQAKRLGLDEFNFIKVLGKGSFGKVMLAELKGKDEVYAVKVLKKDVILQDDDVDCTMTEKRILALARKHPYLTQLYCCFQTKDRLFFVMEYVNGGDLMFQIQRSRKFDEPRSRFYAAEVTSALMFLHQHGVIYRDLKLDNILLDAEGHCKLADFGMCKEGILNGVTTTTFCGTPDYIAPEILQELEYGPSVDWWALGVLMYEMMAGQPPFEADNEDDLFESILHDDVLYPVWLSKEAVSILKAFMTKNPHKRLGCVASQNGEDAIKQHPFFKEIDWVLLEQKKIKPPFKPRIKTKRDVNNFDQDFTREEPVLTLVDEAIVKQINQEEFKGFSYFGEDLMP

[6] = target: KDR kinase (Homo sapiens, UniProt P35968); assay: KDR AlphaScreen assay; conditions: KDR IC50 (μM)
KDR kinase, sequence (P35968 20-1356): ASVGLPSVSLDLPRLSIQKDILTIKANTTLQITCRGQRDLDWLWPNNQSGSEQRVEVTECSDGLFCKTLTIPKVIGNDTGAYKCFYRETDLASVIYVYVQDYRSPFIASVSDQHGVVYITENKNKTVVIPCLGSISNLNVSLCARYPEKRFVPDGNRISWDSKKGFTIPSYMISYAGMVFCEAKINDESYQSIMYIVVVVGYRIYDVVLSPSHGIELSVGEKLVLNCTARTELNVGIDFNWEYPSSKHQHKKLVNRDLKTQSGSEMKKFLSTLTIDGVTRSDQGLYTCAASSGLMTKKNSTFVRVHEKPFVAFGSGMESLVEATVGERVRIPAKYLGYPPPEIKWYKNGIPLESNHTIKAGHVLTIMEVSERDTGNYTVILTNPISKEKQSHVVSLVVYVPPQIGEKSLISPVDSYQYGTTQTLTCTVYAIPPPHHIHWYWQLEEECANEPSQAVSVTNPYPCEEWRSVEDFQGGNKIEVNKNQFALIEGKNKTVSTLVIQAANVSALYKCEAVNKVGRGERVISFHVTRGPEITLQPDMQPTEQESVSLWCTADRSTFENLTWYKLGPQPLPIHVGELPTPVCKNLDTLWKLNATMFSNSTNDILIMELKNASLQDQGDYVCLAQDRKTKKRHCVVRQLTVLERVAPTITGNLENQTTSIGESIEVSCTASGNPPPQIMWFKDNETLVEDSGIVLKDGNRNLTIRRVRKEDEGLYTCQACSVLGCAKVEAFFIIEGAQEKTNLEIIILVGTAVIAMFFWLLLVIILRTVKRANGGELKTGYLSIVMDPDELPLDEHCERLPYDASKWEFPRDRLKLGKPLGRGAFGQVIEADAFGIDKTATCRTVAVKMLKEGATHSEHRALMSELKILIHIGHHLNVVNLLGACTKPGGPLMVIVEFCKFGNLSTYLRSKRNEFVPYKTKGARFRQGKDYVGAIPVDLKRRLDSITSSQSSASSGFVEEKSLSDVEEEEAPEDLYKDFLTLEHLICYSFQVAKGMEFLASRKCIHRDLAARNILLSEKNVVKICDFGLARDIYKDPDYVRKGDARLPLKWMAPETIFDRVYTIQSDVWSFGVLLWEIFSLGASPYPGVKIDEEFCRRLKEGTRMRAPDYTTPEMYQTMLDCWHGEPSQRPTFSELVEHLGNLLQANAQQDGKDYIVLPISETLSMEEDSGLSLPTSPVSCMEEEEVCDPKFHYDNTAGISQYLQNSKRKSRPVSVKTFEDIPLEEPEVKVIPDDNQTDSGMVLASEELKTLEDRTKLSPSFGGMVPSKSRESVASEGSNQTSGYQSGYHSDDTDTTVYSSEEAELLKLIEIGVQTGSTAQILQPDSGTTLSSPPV

Pim2 kinase, sequence (Q9P1W9 whole entry): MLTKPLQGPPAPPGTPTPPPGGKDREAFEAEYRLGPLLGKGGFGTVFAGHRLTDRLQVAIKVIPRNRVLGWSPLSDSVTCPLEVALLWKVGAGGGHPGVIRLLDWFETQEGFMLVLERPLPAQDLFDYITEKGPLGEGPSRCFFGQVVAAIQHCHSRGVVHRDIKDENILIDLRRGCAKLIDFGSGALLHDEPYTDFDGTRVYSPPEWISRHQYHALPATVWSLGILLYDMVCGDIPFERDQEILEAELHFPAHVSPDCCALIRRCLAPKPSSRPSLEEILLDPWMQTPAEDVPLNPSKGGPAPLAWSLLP
Pim1 kinase, sequence (P11309 whole entry): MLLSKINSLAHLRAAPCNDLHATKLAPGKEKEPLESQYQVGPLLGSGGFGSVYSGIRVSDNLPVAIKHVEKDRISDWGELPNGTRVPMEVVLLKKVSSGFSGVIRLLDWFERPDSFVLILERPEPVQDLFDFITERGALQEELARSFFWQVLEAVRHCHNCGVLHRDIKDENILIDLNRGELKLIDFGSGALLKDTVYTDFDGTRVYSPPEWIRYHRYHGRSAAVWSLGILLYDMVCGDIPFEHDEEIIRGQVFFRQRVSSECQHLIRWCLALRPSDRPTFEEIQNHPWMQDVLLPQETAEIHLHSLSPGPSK

SMILES | EC50 [1] | IC50 [2] | IC50 [3] | IC50 [4] | IC50 [5] | IC50 [6]
COc1cc(-c2cnc(N)c(C(=O)Nc3ccccc3N3CCNCC3)n2)cc(OC)c1OC [Example 395, 3-amino-6-(3,4,5-trimethoxy-phenyl)-pyrazine-2-carboxylic acid (2-piperazin-1-yl-phenyl)-amide] | 1 to 5 µM | 1 to 10 µM | < 1 µM | > 25 µM |  | 
Nc1nccnc1C(=O)Nc1ccc(F)cc1N1CCC(N)CC1 [Example 210, 3-amino-N-[2-(4-aminopiperidin-1-yl)-4-fluorophenyl]pyrazine-2-carboxamide] | < 1 µM | < 1 µM | < 1 µM | 1 to 10 µM |  | 
Nc1nccnc1C(=O)Nc1cc(-c2ccn[nH]2)ccc1N1CCC(N)CC1 [Example 207, 3-amino-N-[2-(4-aminopiperidin-1-yl)-5-(1H-pyrazol-5-yl)phenyl]pyrazine-2-carbox-amide] | 5 to 10 µM | < 1 µM | < 1 µM | 10 to 25 µM |  | 
Nc1ncc(-c2cccc3ccccc23)nc1C(=O)Nc1ccccc1N1CCNCC1 [Example 389, 3-amino-6-naphthalen-1-yl-pyrazine-2-carboxylic acid (2-piperazin-1-yl-phenyl)-amide] | 1 to 5 µM | 1 to 10 µM | < 1 µM | 1 to 10 µM | < 1000 nM | 1 to 10 µM
Nc1nc(N)c(C(=O)Nc2ccncc2N2CCCCC2)nc1Cl [Example 120, 3,5-diamino-6-chloro-N-(3-piperidin-1-ylpyridin-4-yl)-pyrazine-2-carboxamide] | 1 to 5 µM | < 1 µM | < 1 µM | 1 to 10 µM | 1000 to 10000 nM | 
Nc1nccnc1C(=O)Nc1ccccc1N1CCCC(N)C1 (stereo not drawn) [Example 195, 3-amino-N-[2-(3-aminopiperidin-1-yl)phenyl]pyrazine-2-carboxamide] | > 10 µM | < 1 µM | < 1 µM | < 1 µM | < 1000 nM | > 25 µM
Cc1cnc(N)c(C(=O)Nc2ccccc2N2CCCC(N)C2)n1 (stereo not drawn) [Example 376, 3-amino-6-methyl-pyrazine-2-carboxylic acid [2-(3-amino-piperidin-1-yl)-phenyl]-amide] | > 10 µM | < 1 µM | < 1 µM | < 1 µM | < 1000 nM | > 25 µM
Nc1nccnc1C(=O)Nc1ccccc1N1CCC[C@H](N)C1 [Example 201, 3-amino-N-{2-[(3S)-3-amino-piperidin-1-yl]phenyl}pyrazine-2-carboxamide] | 5 to 10 µM | < 1 µM | < 1 µM | < 1 µM | < 1000 nM | 10 to 25 µM
Nc1nccnc1C(=O)Nc1cnccc1N1CCC(N)CC1 [Example 193, 3-amino-N-[4-(4-aminopiperidin-1-yl)pyridin-3-yl]pyrazine-2-carboxamide] | < 1 µM | < 1 µM | < 1 µM | 1 to 10 µM | < 1000 nM | 
Nc1nccnc1C(=O)Nc1ccccc1N1CCNCC1 [Example 202, 3-amino-N-(2-piperazin-1-ylphenyl)pyrazine-2-carbox-amide] | 1 to 5 µM | 1 to 10 µM | 1 to 10 µM | > 25 µM | < 1000 nM | > 25 µM
Nc1ncc(-c2ccccc2F)nc1C(=O)Nc1cnccc1N1CCNCC1 [Example 363, 3-amino-6-(2-fluoro-phenyl)-pyrazine-2-carboxylic acid (4-piperazin-1-yl-pyridin-3-yl)-amide] | < 1 µM | < 1 µM | < 1 µM |  | < 1000 nM | < 1 µM
COc1ccc(-c2cnc(N)c(C(=O)Nc3cnccc3N3CCC(N)CC3)n2)cc1 [Example 367, 3-amino-6-(4-methoxy-phenyl)-pyrazine-2-carboxylic acid (4-amino-3,4,5,6-tetra-hydro-2H-[1,4′]bipyridinyl-3′-yl)-amide] | < 1 µM | < 1 µM | < 1 µM |  | < 1000 nM | < 1 µM
Nc1nccnc1C(=O)Nc1c(F)cccc1N1CCC(N)CC1 [Example 209, 3-amino-N-[2-(4-aminopiperidin-1-yl)-6-fluorophenyl]pyrazine-2-carboxamide] | 1 to 5 µM | > 25 µM | 10 to 25 µM | > 25 µM |  | 
Nc1ncc(-c2ccccc2)nc1C(=O)Nc1ccccc1N1CCNCC1 [Example 382, 3-amino-6-phenyl-pyrazine-2-carboxylic acid (2-piperazin-1-yl-phenyl)-amide] | 1 to 5 µM | < 1 µM | < 1 µM | 1 to 10 µM | < 1000 nM | 1 to 10 µM
CN(C)C1CCN(c2ccncc2NC(=O)c2nccnc2N)CC1 [Example 126, 3-amino-N-{4-[4-(dimethyl-amino)piperidin-1-yl]pyridin-3-yl}pyrazine-2-carboxamide] | 5 to 10 µM | < 1 µM | < 1 µM | 1 to 10 µM | < 1000 nM | 1 to 10 µM
Nc1ncc(-c2ccccc2F)nc1C(=O)Nc1cnccc1N1CCC(N)CC1 [Example 368, 3-amino-6-(2-fluoro-phenyl)-pyrazine-2-carboxylic acid (4-amino-3,4,5,6-tetrahydro-2H-[1,4′]bipyridinyl-3′-yl)-amide] | < 1 µM | < 1 µM | < 1 µM |  | < 1000 nM | < 1 µM
Nc1nccnc1C(=O)Nc1ccncc1N1CCCCC1 [Example 122, 3-amino-N-(3-piperidin-1-yl-pyridin-4-yl)pyrazine-2-carbox-amide] | < 1 µM | 1 to 10 µM | < 1 µM | 1 to 10 µM | < 1000 nM | 
Nc1nccnc1C(=O)Nc1cc(F)ccc1N1CCC(N)CC1 [Example 208, 3-amino-N-[2-(4-aminopiperidin-1-yl)-5-fluorophenyl]pyrazine-2-carboxamide] | < 1 µM | < 1 µM | < 1 µM | 1 to 10 µM |  | 
COc1ccc(F)c(-c2cnc(N)c(C(=O)Nc3ccccc3N3CCNCC3)n2)c1 [Example 396, 3-amino-6-(2-fluoro-5-methoxy-phenyl)-pyrazine-2-carboxylic acid (2-piperazin-1-yl-phenyl)-amide] | 1 to 5 µM | < 1 µM | < 1 µM | 1 to 10 µM |  | 
Nc1ncc(-c2ccccc2)nc1C(=O)Nc1ccccc1N1CCC(N)CC1 [Example 397, 3-amino-6-phenyl-pyrazine-2-carboxylic acid [2-(4-amino-piperidin-1-yl)-phenyl]-amide] | < 1 µM | < 1 µM | < 1 µM |  |  | 
COc1ccc(F)c(-c2cnc(N)c(C(=O)Nc3ccccc3N3CCC(N)CC3)n2)c1 [Example 393, 3-amino-6-(2-fluoro-5-methoxy-phenyl)-pyrazine-2-carboxylic acid [2-(4-amino-piperidin-1-yl)-phenyl]-amide] | 1 to 5 µM | < 1 µM | < 1 µM | < 1 µM |  | 
Nc1ncc(-c2ccccc2)nc1C(=O)Nc1cnccc1N1CCC(N)CC1 [Example 364, 3-amino-6-phenyl-pyrazine-2-carboxylic acid (4-amino-3,4,5,6-tetrahydro-2H-[1,4′]bi-pyridinyl-3′-yl)-amide] | < 1 µM | < 1 µM | < 1 µM |  | < 1000 nM | < 1 µM and 1 to 10 µM
